{"source": "paper PMC8980233", "about": "“Differentiating the Neuropharmacological Properties of Nicotinic Acetylcholine Receptor-Activating Alkaloids” (Frontiers in Pharmacology, 2022)", "key": {"[1]": {"system": "zebrafish (Danio rerio; strain AB)", "assay": "Zebrafish novel tank test (NTT)", "protocol": "Adult male and female wild-type zebrafish were treated with the compounds for 20 min in a final volume of 50 ml in a 250-ml treatment beaker one fish at a time. The fish were briefly rinsed in fresh system water, and then immediately transferred to a trapezoidal tank (14.6 cm height x 5.5 cm width x 27.9 cm top length and x 23.6 cm bottom length) filled with 1.5 L system water. The behavior of the fish was monitored for the next 5 min by using the Noldus EthoVision XT system (Wageningen, Netherlands), with the camera placed approximately 1 m from the test tank. The part of the tank filled with water (11.5 cm height) was virtually divided into top, center, and bottom of equal heights (approximately 3.8 cm per segment) for the analysis. The average time spent at the top and bottom portions of the tank was analyzed to determine the anxiety-like behavior of fish. The average total distance travelled and freezing time were calculated to determine the effects of the compounds on the general behavior of fish. Freezing was defined by a complete cessation of movement except for gills and eyes ([Kalueff et al., 2013]). A minimum of 12 fish (6 females and 6 males) per condition were used for the study. The experimenter was blind to the test conditions.\nIf not, the dose was reduced until no obvious signs of tolerability problems were observed. […] The concentrations were calculated based on the free base molecular weight. Buspirone—a clinical anxiolytic drug used acutely and chronically to investigate the change in the anxiety-like behavior ([Maximino, et al., 2011]; [Maximino, et al., 2013])—was included as a positive control."}, "[2]": {"system": "C57Bl/6 mice", "assay": "SmartCube behavioral profiling", "assay_type": "in vivo", "conditions": "single i.p. injection, highest dose 0.5 mg/kg body weight", "source_text": "The SmartCube^ ® system is a unique mouse behavior profiling system developed by PsychoGenics Inc. It extracts over 2000 spontaneous and challenge-induced behavioral features during a session ([Alexandrov et al., 2015]; [Alexandrov et al., 2016]). The recorded behavioral parameters are then compared against the behavioral profiles of marketed reference compounds in the database, and the test compounds are classified into known drug classes using PsychoGenics’ proprietary bioinformatics algorithms. In brief, mice were i. p. injected with vehicle or test compound at 10 ml/kg body weight and placed in the SmartCube^ ® arena (24 cm × 25 cm) 15 min later. Spontaneous and stimulus-induced behaviors of mice were recorded using force sensors distributed throughout the arena during a 45-min test session. In addition, three high-resolution video cameras provided a constant 3-dimensional (3D) view of the mouse behavior in the SmartCube^ ® arena throughout the testing period. The bedding was vacuumed, and the arena was cleaned with NOLVASAN^ ® solution between each run. Data from the SmartCube^ ® test were processed using PsychoGenics’ proprietary Computer Vision feature extraction, Bayesian probabilistic density models, and data mining algorithms, trained on a large library of reference compounds with known therapeutic indications to predict the underlying class of each test compound ([Alexandrov et al., 2015]; [Alexandrov et al., 2016]). Twelve mice were tested per condition. Mice were terminated after the completion of the SmartCube^ ® test.\nThe doses were calculated based on the free base molecular weight. The doses were selected based on the tolerability test results."}, "[3]": {"system": "C57Bl/6 mice", "assay": "Tolerability test (body weight, body temperature, passive signs, manipulation responses)", "conditions": "for BT (°C) naïve / Manipulations naïve / Passive naïve: baseline; for BW Day 1 / BW Day 2: mean ± SD", "protocol": "In brief, mice were single-housed prior to the test and evaluated for baseline body weight, body temperature, and other parameters. […] On day 1, the mice were i. p. injected with saline (vehicle) or a test compound at 10 ml/kg body weight. Then, body temperature was measured at 15 min, 4 h, and 24 h and body weight on days 1 and 2. Neurological and motor parameters were evaluated at 15 min, 2 h, and 4 h after administration. The list of parameters is provided in Supplementary Figure S1 in Supplementary Material S1.\nIn addition, within 5 min after the 15-min observation period, mice were placed in open-field chambers for 30 min to determine their general motor activity (distance traveled), ambulatory time, and number of rears. The open-field chambers were made of Plexiglas (27.3 × 27.3 × 20.3 cm; Med Associates Inc, St Albans, VT, United States) surrounded by infrared photobeam sources (16 × 16 × 16 beams). Horizontal activity (distance and time traveled) and vertical activity (number and frequency of rears) were measured by consecutive beam breaks. At the end of each open-field test session, the chambers were thoroughly cleaned with NOLVASAN® solution (Zoetis Services LLC, Parsippany, NJ, United States). Four mice were used per treatment condition. Mice were terminated after completion of the last tolerability observation.\nAll compounds were diluted in saline, and the pH was adjusted to approximately 7.0 with HCl or NaOH on the day of the experiment. […] The doses were calculated based on the free base molecular weight of the compounds.\nFor the tolerability tests, passive signs and manipulation responses were analyzed for effects of the treatment by the Kruskal–Wallis test. Body temperature and body weight data were analyzed by two-way repeated measures analysis of variance (ANOVA). The total distance and time traveled and number and frequency of rears in the open-field activity test were analyzed by one-way ANOVA, followed by the Tukey post-hoc test. For the analyses of the zebrafish NTT data, one-way ANOVA was used, followed by Dunnett’s multiple comparison test, if it passed the Shapiro-Wilk normality test. […] An effect was considered significant if p < 0.05. The half maximal effective concentration (EC50) and half-maximal inhibitory concentration (IC50) for the receptor pharmacology and neurotransmitter release assay were determined by using nonlinear regression analysis. Statistical analyses were conducted using GraphPad Prism."}, "[4]": {"conditions": "1, 3, and 10 mg/L, 20 min treatment"}}}
{"smiles": "CN1CCC[C@H]1c1cccnc1", "note": "[Nicotine, (-)-Nicotine]", "values": [{"measurement": "time spent at the bottom", "setting": "[1]; [4]", "value": "reduced the time spent at the bottom"}, {"measurement": "time spent at the top", "setting": "[1]; [4]", "value": "increased the time spent at the top"}, {"measurement": "freezing response", "setting": "[1]; 1 and 10 mg/L", "value": "no freezing response"}, {"measurement": "total distance traveled", "setting": "[1]; 1 and 10 mg/L", "value": "decreased total distance traveled"}, {"measurement": "SmartCube drug classification / behavioral features", "setting": "[2]", "value": "anxiolytic-like behavior features"}, {"measurement": "BT (°C) naïve", "setting": "[3]; 0.25 mg/kg group", "value": "37.83 ± 0.15", "unit": "°C"}, {"measurement": "Manipulations naïve", "setting": "[3]; 0.25 mg/kg group", "value": "0.00 ± 0.00"}, {"measurement": "Passive naïve", "setting": "[3]; 0.25 mg/kg group", "value": "0.00 ± 0.00"}, {"measurement": "BT (°C) 15min", "setting": "[3]; 0.25 mg/kg i.p.", "value": "37.48 ± 0.98", "unit": "°C"}, {"measurement": "BT (°C) 4hr", "setting": "[3]; 0.25 mg/kg i.p.", "value": "36.88 ± 0.97", "unit": "°C"}, {"measurement": "BT (°C) 24hr", "setting": "[3]; 0.25 mg/kg i.p.", "value": "36.43 ± 0.87", "unit": "°C"}, {"measurement": "Manipulations 15min", "setting": "[3]; 0.25 mg/kg i.p.", "value": "0.00 ± 0.00"}, {"measurement": "Manipulations 2hr", "setting": "[3]; 0.25 mg/kg i.p.", "value": "0.00 ± 0.00"}, {"measurement": "Manipulations 4hr", "setting": "[3]; 0.25 mg/kg i.p.", "value": "0.00 ± 0.00"}, {"measurement": "Passive 15min", "setting": "[3]; 0.25 mg/kg i.p.", "value": "0.00 ± 0.00"}, {"measurement": "Passive 2hr", "setting": "[3]; 0.25 mg/kg i.p.", "value": "0.00 ± 0.00"}, {"measurement": "Passive 4hr", "setting": "[3]; 0.25 mg/kg i.p.", "value": "0.00 ± 0.00"}, {"measurement": "BW Day 1", "setting": "[3]; 0.25 mg/kg i.p.", "value": "24.54 ± 0.97"}, {"measurement": "BW Day 2", "setting": "[3]; 0.25 mg/kg i.p.", "value": "24.33 ± 0.99"}, {"measurement": "BT (°C) naïve", "setting": "[3]; 0.5 mg/kg group", "value": "37.93 ± 0.17", "unit": "°C"}, {"measurement": "Manipulations naïve", "setting": "[3]; 0.5 mg/kg group", "value": "0.00 ± 0.00"}, {"measurement": "Passive naïve", "setting": "[3]; 0.5 mg/kg group", "value": "0.00 ± 0.00"}, {"measurement": "BT (°C) 15min", "setting": "[3]; 0.5 mg/kg i.p.", "value": "36.48 ± 0.90", "unit": "°C"}, {"measurement": "BT (°C) 4hr", "setting": "[3]; 0.5 mg/kg i.p.", "value": "36.50 ± 0.44", "unit": "°C"}, {"measurement": "BT (°C) 24hr", "setting": "[3]; 0.5 mg/kg i.p.", "value": "36.65 ± 0.41", "unit": "°C"}, {"measurement": "Manipulations 15min", "setting": "[3]; 0.5 mg/kg i.p.", "value": "0.00 ± 0.00"}, {"measurement": "Manipulations 2hr", "setting": "[3]; 0.5 mg/kg i.p.", "value": "0.00 ± 0.00"}, {"measurement": "Manipulations 4hr", "setting": "[3]; 0.5 mg/kg i.p.", "value": "0.00 ± 0.00"}, {"measurement": "Passive 15min", "setting": "[3]; 0.5 mg/kg i.p.", "value": "0.00 ± 0.00"}, {"measurement": "Passive 2hr", "setting": "[3]; 0.5 mg/kg i.p.", "value": "0.00 ± 0.00"}, {"measurement": "Passive 4hr", "setting": "[3]; 0.5 mg/kg i.p.", "value": "0.00 ± 0.00"}, {"measurement": "BW Day 1", "setting": "[3]; 0.5 mg/kg i.p.", "value": "24.58 ± 0.93"}, {"measurement": "BW Day 2", "setting": "[3]; 0.5 mg/kg i.p.", "value": "24.76 ± 1.20"}, {"measurement": "BT (°C) naïve", "setting": "[3]; 1 mg/kg group", "value": "37.90 ± 0.16", "unit": "°C"}, {"measurement": "Manipulations naïve", "setting": "[3]; 1 mg/kg group", "value": "0.00 ± 0.00"}, {"measurement": "Passive naïve", "setting": "[3]; 1 mg/kg group", "value": "0.00 ± 0.00"}, {"measurement": "BT (°C) 15min", "setting": "[3]; 1 mg/kg i.p.", "value": "33.53 ± 0.85", "unit": "°C"}, {"measurement": "BT (°C) 4hr", "setting": "[3]; 1 mg/kg i.p.", "value": "36.55 ± 0.48", "unit": "°C"}, {"measurement": "BT (°C) 24hr", "setting": "[3]; 1 mg/kg i.p.", "value": "36.53 ± 0.31", "unit": "°C"}, {"measurement": "Manipulations 15min", "setting": "[3]; 1 mg/kg i.p.", "value": "0.00 ± 0.00"}, {"measurement": "Manipulations 2hr", "setting": "[3]; 1 mg/kg i.p.", "value": "0.00 ± 0.00"}, {"measurement": "Manipulations 4hr", "setting": "[3]; 1 mg/kg i.p.", "value": "0.00 ± 0.00"}, {"measurement": "Passive 15min", "setting": "[3]; 1 mg/kg i.p.", "value": "0.00 ± 0.00"}, {"measurement": "Passive 2hr", "setting": "[3]; 1 mg/kg i.p.", "value": "0.00 ± 0.00"}, {"measurement": "Passive 4hr", "setting": "[3]; 1 mg/kg i.p.", "value": "0.00 ± 0.00"}, {"measurement": "body temperature 15 min after the injection", "setting": "[3]; 1 mg/kg i.p.", "value": "decreased the body temperature"}, {"measurement": "BW Day 1", "setting": "[3]; 1 mg/kg i.p.", "value": "24.55 ± 0.94"}, {"measurement": "BW Day 2", "setting": "[3]; 1 mg/kg i.p.", "value": "24.10 ± 0.61"}]}
